From patent publication US12371421B2, “Solid forms of a PARP7 inhibitor” (Ribon Therapeutics, Inc., priority 2019, dated 2025)

Key:
[1] = tested on: NCI-H1373 lung cancer xenograft; experiment: Tumor growth in human NCI-H1373 lung cancer xenograft; type: in vivo, SCID mice
Protocol: For the NCI-H1373 study, SCID mice were inoculated subcutaneously in the right flank with NCI-H1373 cells for tumor development. After 5 days of tumor growth, mice with 89-148 mm^3 tumors were randomized into treatment groups with mean tumor volumes of 121 mm^3. […] Tumor volumes were determined by manual calipers every 2-3 days. Mean tumor volume and SEM are plotted. QD: once a day; PO: per oral administration. Statistical significance is calculated using two-way ANOVA followed by Bonferroni post-tests in which the treatment groups were compared to vehicle control (****P<0.0001).

[2] = tested on: ACC-MESO-1; experiment: Cancer cell growth inhibition (CellTiter-Glo); type: cell-based; conditions: ACC-MESO-1, mesothelioma; 144 hours
Protocol: (§1) Cells were plated into 384-well plates at a pre-specified density in fetal bovine serum-containing media. Cells were treated with compound or vehicle (DMSO) 24 hrs later, and a day zero plate was collected for analysis. Test compound plates were incubated continuously for 144 hours before cells and cell growth was assessed using a luminescent cell viability assay (CellTiter-Glo, Promega). The GI50 was determined by correcting for the cell count at time zero (time of treatment) and plotting data as percent growth relative to vehicle-treated cells.

[3] = tested on: AGS; experiment: Cancer cell growth inhibition (CellTiter-Glo); type: cell-based; conditions: Homo sapiens, gastric adenocarcinoma, 144 hours
Protocol: as §1

[4] = tested on: CAL-27; experiment: Cancer cell growth inhibition (CellTiter-Glo); type: cell-based; conditions: Homo sapiens; CAL-27, tongue squamous cell carcinoma; 144 hours
Protocol: as §1

[5] = tested on: COLO 680N; experiment: Cancer cell growth inhibition (CellTiter-Glo); type: cell-based; conditions: Homo sapiens, esophageal squamous cell carcinoma, 144 hours
Protocol: as §1

[6] = tested on: Caki-1; experiment: Cancer cell growth inhibition (CellTiter-Glo); type: cell-based; conditions: Homo sapiens; Caki-1, clear cell renal cell carcinoma; 144 hours
Protocol: as §1

[7] = tested on: EBC-1; experiment: Cancer cell growth inhibition (CellTiter-Glo); type: cell-based; conditions: Homo sapiens; EBC-1, squamous cell lung carcinoma; 144 hours
Protocol: as §1

[8] = tested on: H4; experiment: Cancer cell growth inhibition (CellTiter-Glo); type: cell-based; conditions: H4, neuroglioma; 144 hours
Protocol: as §1

[9] = tested on: HCC1954; experiment: Cancer cell growth inhibition (CellTiter-Glo); type: cell-based; conditions: Homo sapiens; HCC1954, ductal breast carcinoma; 144 hours
Protocol: as §1

[10] = tested on: HCC827; experiment: Cancer cell growth inhibition (CellTiter-Glo); type: cell-based; conditions: Homo sapiens; HCC827, lung adenocarcinoma; 144 hours
Protocol: as §1

[11] = tested on: HT-1080; experiment: Cancer cell growth inhibition (CellTiter-Glo); type: cell-based; conditions: Homo sapiens; HT-1080, fibrosarcoma; 144 hours
Protocol: as §1

[12] = tested on: KMBC-2; experiment: Cancer cell growth inhibition (CellTiter-Glo); type: cell-based; conditions: KMBC-2, bladder carcinoma; 144 hours
Protocol: as §1

[13] = tested on: LN-18; experiment: Cancer cell growth inhibition (CellTiter-Glo); type: cell-based; conditions: Homo sapiens; LN-18, glioblastoma; 144 hours
Protocol: as §1

[14] = tested on: MDA-MB-468; experiment: Cancer cell growth inhibition (CellTiter-Glo); type: cell-based; conditions: Homo sapiens; MDA-MB-468, breast adenocarcinoma; 144 hours
Protocol: as §1

[15] = tested on: NCI-H1373; experiment: Cancer cell growth inhibition (CellTiter-Glo); type: cell-based; conditions: Homo sapiens; NCI-H1373, lung adenocarcinoma; 144 hours
Protocol: as §1

[16] = tested on: NCI-H1437; experiment: Cancer cell growth inhibition (CellTiter-Glo); type: cell-based; conditions: Homo sapiens; NCI-H1437, lung adenocarcinoma; 144 hours
Protocol: as §1

[17] = tested on: NCI-H1930; experiment: Cancer cell growth inhibition (CellTiter-Glo); type: cell-based; conditions: Homo sapiens; NCI-H1930, small cell lung carcinoma; 144 hours
Protocol: as §1

[18] = tested on: NCI-H1944; experiment: Cancer cell growth inhibition (CellTiter-Glo); type: cell-based; conditions: Homo sapiens; NCI-H1944, lung adenocarcinoma; 144 hours
Protocol: as §1

[19] = tested on: NCI-H1963; experiment: Cancer cell growth inhibition (CellTiter-Glo); type: cell-based; conditions: Homo sapiens; NCI-H1963, small cell lung carcinoma; 144 hours
Protocol: as §1

[20] = tested on: NCI-H2009; experiment: Cancer cell growth inhibition (CellTiter-Glo); type: cell-based; conditions: Homo sapiens; NCI-H2009, lung adenocarcinoma; 144 hours
Protocol: as §1

[21] = tested on: NCI-H2087; experiment: Cancer cell growth inhibition (CellTiter-Glo); type: cell-based; conditions: Homo sapiens; NCI-H2087, lung adenocarcinoma; 144 hours
Protocol: as §1

[22] = tested on: NCI-H2347; experiment: Cancer cell growth inhibition (CellTiter-Glo); type: cell-based; conditions: Homo sapiens; NCI-H2347, lung adenocarcinoma; 144 hours
Protocol: as §1

[23] = tested on: NCI-H2444; experiment: Cancer cell growth inhibition (CellTiter-Glo); type: cell-based; conditions: Homo sapiens; NCI-H2444, non-small cell lung carcinoma; 144 hours
Protocol: as §1

[24] = tested on: NCI-H441; experiment: Cancer cell growth inhibition (CellTiter-Glo); type: cell-based; conditions: Homo sapiens; NCI-H441, papillary adenocarcinoma of the lung; 144 hours
Protocol: as §1

[25] = tested on: NCI-H647; experiment: Cancer cell growth inhibition (CellTiter-Glo); type: cell-based; conditions: Homo sapiens; NCI-H647, lung adenosquamous carcinoma; 144 hours
Protocol: as §1

[26] = tested on: Panc 03.27; experiment: Cancer cell growth inhibition (CellTiter-Glo); type: cell-based; conditions: Homo sapiens, PANC-03-27; Panc 03.27, pancreatic adenocarcinoma; 144 hours
Protocol: as §1

[27] = tested on: SCC-25; experiment: Cancer cell growth inhibition (CellTiter-Glo); type: cell-based; conditions: Homo sapiens; SCC-25, tongue squamous cell carcinoma; 144 hours
Protocol: as §1

[28] = tested on: SCaBER; experiment: Cancer cell growth inhibition (CellTiter-Glo); type: cell-based; conditions: Homo sapiens, bladder squamous cell carcinoma, 144 hours
Protocol: as §1

[29] = tested on: SF126; experiment: Cancer cell growth inhibition (CellTiter-Glo); type: cell-based; conditions: Homo sapiens, SF-126; SF126, glioblastoma multiforme; 144 hours
Protocol: as §1

[30] = tested on: SK-LU-1; experiment: Cancer cell growth inhibition (CellTiter-Glo); type: cell-based; conditions: Homo sapiens; SK-LU-1, lung adenocarcinoma; 144 hours
Protocol: as §1

[31] = tested on: SK-MES-1; experiment: Cancer cell growth inhibition (CellTiter-Glo); type: cell-based; conditions: Homo sapiens; SK-MES-1, squamous cell lung carcinoma; 144 hours
Protocol: as §1

[32] = tested on: SNU-840; experiment: Cancer cell growth inhibition (CellTiter-Glo); type: cell-based; conditions: SNU-840, malignant ovarian Brenner tumor; 144 hours
Protocol: as §1

[33] = tested on: SW900; experiment: Cancer cell growth inhibition (CellTiter-Glo); type: cell-based; conditions: Homo sapiens; SW900, squamous cell lung carcinoma; 144 hours
Protocol: as §1

GI50 [2]: ≥ 1000 nM
GI50 [3]: ≥ 1000 nM
GI50 [4]: ≥ 1000 nM
GI50 [5]: ≥ 1000 nM
GI50 [6]: < 100 nM
GI50 [7]: < 100 nM
GI50 [8]: ≥ 1000 nM
GI50 [9]: ≥ 1000 nM
GI50 [10]: < 100 nM
GI50 [11]: ≥ 1000 nM
GI50 [12]: ≥ 1000 nM
GI50 [13]: ≥ 1000 nM
GI50 [14]: ≥ 1000 nM
GI50 [15]: < 100 nM
GI50 [16]: ≥ 1000 nM
GI50 [17]: ≥ 1000 nM
GI50 [18]: ≥ 1000 nM
GI50 [19]: ≥ 1000 nM
GI50 [20]: ≥ 1000 nM
GI50 [21]: ≥ 1000 nM
GI50 [22]: < 100 nM
GI50 [23]: ≥ 1000 nM
GI50 [24]: ≥ 1000 nM
GI50 [25]: < 100 nM
GI50 [26]: < 100 nM
GI50 [27]: < 100 nM
GI50 [28]: ≥ 1000 nM
GI50 [29]: ≥ 1000 nM
GI50 [30]: ≥ 1000 nM
GI50 [31]: ≥ 1000 nM
GI50 [32]: ≥ 1000 nM
GI50 [33]: 100 to 1000 nM
SMILES: C[C@@H](COCCC(=O)N1CCN(c2ncc(C(F)(F)F)cn2)CC1)Nc1cn[nH]c(=O)c1C(F)(F)F [Compound 1, 5-[[(2S)-1-(3-oxo-3-[4-[5-(trifluoromethyl)pyrimidin-2-yl]piperazin-1-yl]propoxy)propan-2-yl]amino]-4-(trifluoromethyl)-2,3-dihydropyridazin-3-one]
Tumor growth (tumor volume) vs vehicle ([1]; 62.5, 125, 250, 500 mg/kg QD PO for 28 days, P<0.0001 vs vehicle): significantly reduces tumor growth
Tumor regression ([1]; 62.5 to 500 mg/kg once a day for 28 days, oral gavage, all dose levels): complete tumor regression
